Assay results from patent publication US4785017A, “3,4-dihydro-2H-1-benzopyran derivatives” (Hoffmann-La Roche Inc., priority 1984, dated 1988).

Columns and labels:
[1] = test system: SRS-A-induced constriction of the guinea pig ileum; assay: Guinea Pig Ileum, In Vitro: inhibition of SRS-A-induced constriction (SRS-A antagonism); details: SRS-A antagonism; SRS-A at EC50, 37° C., with atropine sulfate and pyrilamine maleate; read-out: In vitro Guinea Pig ileum IC50
Method: (a) Guinea Pig Ileum, In Vitro:
The guinea pig ileum bioassay system has been described by Orange Austen, Adv. Immunol. […] A 1.5 cm segment is removed from animals weighing 300-400 g and suspended in an organ bath containing 10 ml of Tyrodes solution with 10^-6 M atropine sulfate and 10^-6 M pyrilamine maleate. […] The SRS-A utilized in this screen is obtained by challenging chopped lung fragments from actively sensitized guinea pigs with egg albumin, in vitro. A dose-response curve to SRS-A challenge is established for the ileum. […] The drug concentration which inhibits, by 50%, the SRS-A-induced constriction of the guinea pig ileum is determined.

[2] = test system: leukotriene E4 induced bronchoconstriction; assay: Guinea Pig Bronchoconstriction, In Vivo (Aerosol), leukotriene E4 challenge; set-up: species or system guinea pig (Hartley strain); details: five minute aerosol exposure (% w/v aerosol solution); maximum constrictory dose of leukotriene E4 i.v.; propanolol pretreatment
Method: (b) Guinea Pig Bronchoconstriction, In Vivo (Aerosol):
Male guinea pigs (Hartley strain) weighing 300 to 500 g are anesthetized with urethane (2 g/kg) intraperitoneally and a polyethylene cannula is inserted into the jugular vein for drug administration. Tracheal pressure is recorded from a cannula inserted in the trachea and connected to a Statham pressure transducer. After surgical preparation of the animals, a period of time is allowed for pulmonary functions to stabilize. The test compound is administered according to the following protocol. Propanolol (0.1 mg/kg) is administered intravenously while the animals breathed spontaneously. Five minutes thereafter, the animals are exposed for a five minute period to a 1% (w/v) aerosol solution of test compound (adjusted to an alkaline pH where necessary for drug solubilization) or to distilled water of the appropriate pH (for control purposes). A Monaghan (Model 750) ultrasonic nebulizer is used to administer all test compounds by inhalation. The nebulizer ultrasonic frequency is adjusted to produce particles in the 1-8μ diameter range (average 3μ). Aqueous solutions are prepared freshly and introduced into the chamber of the nebulizer. The output of the nebulizer is made available to the animal by directing a bias flow of aerosol through a Y tube connected to the tracheal cannula. At the end of the exposure period, the animals are paralyzed with succinylcholine (1.2 mg/kg, i.v.) and mechanically respirated (Harvard rodent respirator) at 40 breaths/minute and 2.5 cc tidal volume. Animals are then challenged with a maximum constrictory dose of leukotriene E4 delivered intravenously 30 seconds after administration of the succinylcholine.
The change (cm H2 O) between pre and peak ventilatory pressure readings averaged for three control animals and five drug treated animals. The percent inhibition is calculated from the following formula: [formula] When various drug concentrations are tested, the percent inhibition at each concentration is plotted as log concentration (abscissa) versus percent inhibition (ordinate) and the IC50 is determined from linear regression analysis.

[3] = test system: leukotriene D4 induced bronchoconstriction; assay: Guinea Pig Bronchoconstriction, In Vivo (Aerosol), leukotriene D4 challenge; set-up: species or system guinea pig (Hartley strain); details: aerosol assay with leukotriene E4 replaced with leukotriene D4
[4] = test system: leukotriene D4 induced bronchoconstriction; assay: Oral Testing of Leukotriene Antagonists, leukotriene D4 challenge; assay type: in vivo, guinea pig (Hartley strain, Charles River); details: 10 mg/kg by the oral route, two hours prior to challenge with leukotriene D4
Method: (c) Oral Testing of Leukotriene Antagonists
Male guinea pigs (Hartley strain, Charles River) weighing 400 to 600 g were anesthetized with urethane (2 g/kg) intraperitoneally and a polyethylene cannula was inserted into the jugular vein for intravenous drug administration. Tracheal pressure (cm water) was recorded from a Statham pressure transducer. After surgical preparation of the animals, a period of time was allowed for spontaneous breathing to stabilize. […] Two minutes later, spontaneous breathing was arrested with succinylcholine chloride (1.2 mg/kg, i.v.) and the animals ventilated with a Harvard (Model #680) small animal respirator set at 40 breaths per minute and 4.0 cc stroke volume. The animals were challenged with a maximum constrictory does of either leukotriene C4 or leukotriene D4 or leukotriene E4 (25 ug/kg, i.v.) at 5 minutes. Control vehicle or test drug (adjusted to an alkaline pH where necessary for drug solubilization) was administered (10 mg/kg, p.o.) two hours prior to challenge with leukotriene. In order to determine the ID50 for a test drug, the dose is varied from 10 mg/kg, p.o. to 100, 50, 30, 20, 5, 3 and 1 mg/kg, p.o.
In order to determine oral duration of action, the time between exposure to test drug and challenge with leukotriene is varied.

SMILES	IC50 [1]	Guinea Pig Bronchoconstriction In vivo aerosol - IC50(%) [2]	IC50 value in inhibiting bronchoconstriction (aerosol) [3]	inhibition of leukotriene D4 induced bronchoconstriction [4]
CCCc1c(OCCCCCOc2cc3c(cc2C(C)=O)CCC(CCCCC(=O)O)O3)ccc(C(C)=O)c1O (racemic) [racemic-6-acetyl-7-[5-(4-acetyl-3-hydroxy-2-propylphenoxy)pentyloxy]-3,4-dihydro-2H-1-benzopyran-2-pentanoic acid]	–	–	–	46±14%
CCCc1c(OCCCOc2ccc3c(c2CCC)OC(C)(CCC(=O)O)CC3)ccc(C(C)=O)c1O (racemic) [racemic-7-[3-(4-acetyl-3-hydroxy-2-n-propylphenoxy)propoxy]-3,4-dihydro-2-methyl-8-n-propyl-2H-1-benzopyran-2-propanoic acid]	0.5 µM	0.71%	–	–
CCCc1c(OCCCOc2ccc3c(c2)OC(C(=O)O)CC3)ccc(C(C)=O)c1O (racemic) [racemic-7-[3-(4-acetyl-3-hydroxy-2-propyl)phenoxy)propoxy]-3,4-dihydro-2H-1-benzopyran-2-carboxylic acid]	0.06 µM	0.14%	–	–
CCCc1c(OCCCOc2ccc3c(c2CCC)OC(C(=O)O)CC3)ccc(C(C)=O)c1O (racemic) [racemic-7-[3-(4-acetyl-3-hydroxy-2-propyl)phenoxy)propoxy]-3,4-dihydro-8-propyl-2H-1-benzopyran-2-carboxylic acid]	0.1 µM	0.20%	–	–
CCCc1c(OCCCOc2ccc3c(c2)OC(C)(CCC(=O)O)CC3)ccc(C(C)=O)c1O (racemic) [racemic-7-[3-(4-acetyl-3-hydroxy-2-propylphenoxy)propoxy]-3,4-dihydro-2-methyl-2H-1-benzopyran-2-propanoic acid]	0.1 µM	> 1.0%	–	–
CCCc1c(OCCCOc2ccc3c(c2)OC(CC(=O)O)CC3)ccc(C(C)=O)c1O (racemic) [racemic-7-[3-(4-acetyl-3-hydroxy-2-propylphenoxy)propoxy]-3,4-dihydro-2H-1-benzopyran-2-acetic acid]	0.1 µM	0.67%	–	–
CCCc1c(OCCCOc2cc3c(cc2C(C)=O)OC(C)(C(=O)O)CC3)ccc(C(C)=O)c1O (racemic) [racemic-7-acetyl-6-[3-(4-acetyl-3-hydroxy-2-propylphenoxy)propoxy]-3,4-dihydro-2-methyl-2H-1-benzopyran-2-carboxylic acid]	0.5 µM	1.0%	–	–
CCCc1c(OCCCOc2ccc3c(c2C(C)=O)OC(C(=O)O)CC3)ccc(C(C)=O)c1O (racemic) [racemic-8-acetyl-7[3-(4-acetyl-3-hydroxy-2-propylphenoxy)propoxy]-3,4-dihydro-2H-1-benzopyran-2-carboxylic acid]	0.3 µM	0.59%	–	–

The remaining molecules from weak to strong by IC50 [1], led by results:

IC50 [1]	Guinea Pig Bronchoconstriction In vivo aerosol - IC50(%) [2]	IC50 value in inhibiting bronchoconstriction (aerosol) [3]	SMILES	inhibition of leukotriene D4 induced bronchoconstriction [4]
0.2 µM	0.34%	–	CCCc1c(OCCCOc2cc3c(cc2C(C)=O)OC(C(=O)O)CC3)ccc(C(C)=O)c1O (racemic) [racemic-7-acetyl-6-[3-(4-acetyl-3-hydroxy-2-propylphenoxy)propoxy]-3,4-dihydro-2H-1-benzopyran-2-carboxylic acid]	–
0.1 µM	–	0.018%	CCCc1c(OCCCCCOc2cc3c(cc2C(C)=O)CC[C@H](C(=O)O)O3)ccc(C(C)=O)c1O [(R)-6-acetyl-7-[5-(4-acetyl-3-hydroxy-2-propylphenoxy)pentyloxy]-3,4-dihydro-2H-1-benzopyran-2-carboxylic acid]	–
0.06 µM	0.052%	0.0056%	CCCc1c(OCCCCCOc2cc3c(cc2C(C)=O)CCC(C(=O)O)O3)ccc(C(C)=O)c1O (racemic) [racemic-6-acetyl-7-[5-(4-acetyl-3-hydroxy-2-propylphenoxy)pentyloxy]-3,4-dihydro-2H-1-benzopyran-2-carboxylic acid]	–
0.06 µM	–	0.0018%	CCCc1c(OCCCCCOc2cc3c(cc2C(C)=O)CC[C@@H](C(=O)O)O3)ccc(C(C)=O)c1O [(S)-6-acetyl-7-[5-(4-acetyl-3-hydroxy-2-propylphenoxy)pentyloxy]-3,4-dihydro-2H-1-benzopyran-2-carboxylic acid]	–
